Series [1] has as its system porcine red blood cells (RBC). Kind of series: Hemolytic activity (hemoglobin release). Type of series: cell-based. The following applies: dark, 1 hour. How it is done:
The hemolytic activities of the complexes were determined by measuring hemoglobin release from porcine red blood cells (RBC). First, fresh porcine blood commercially obtained was diluted to 5% v/v in PBS solution and washed three times with PBS by centrifugation at 1000 rcf for 10 min. Then, RBC suspension (150 μL) was mixed with 150 μL of each complex at concentrations ranging from 1 to 50 μM. A solution of 0.2% Triton X-100 in PBS was used as positive control to induce complete hemolysis. PBS alone was used as negative control. Samples were incubated at 37 °C for 1 h in an orbital shaker (50 rpm) and then centrifuged at 3500 rcf for 10 min. 80 μL aliquots of the supernatant were transferred to a 96-well plate and diluted with 80 μL of Milli-Q water. Hemolysis was evaluated by measuring the absorbance of the samples at 540 nm with a Synergy 4 plate reader (BioTek, Winooski). The percentage of hemolysis (H) was calculated using eq 4: [drawing 25] 4 where As is the absorbance for a given sample, An is the absorbance for the negative control, and Ap is the absorbance for the positive control. Each sample was tested in triplicate.

Another series concerns A549 cells. As to the kind of experiment: Intracellular ROS production (CM-H2DCFDA, flow cytometry). Type of series: cell-based, human. The following applies: for elevation of ROS levels (median fluorescence): 10 nM, 4 h then blue light 1 h, vs untreated control; for increase in cellular ROS content: complexes at IC50,dark, 5 h, no irradiation. On the procedure:
A549 cells were seeded onto 24-well plates (5 × 10^4 cells/well) 24 h before the experiment. The cells were incubated for 4 h with complexes 2, 4, 6, and 8 at 10 nM and then photoactivated or kept in the dark for an additional hour. In addition, the cells were treated for 5 h with the complexes at the corresponding IC50,dark without irradiation. The cells exposed for 30 min to 0.5 μM FeCl2 and 0.04% H2O2, as ROS inducers, were used as positive control. After the treatments, the cells were washed with PBS and harvested by trypsinization. Intracellular ROS were detected by incubation with the chloromethyl 2′,7′-dichlorodihydrofluorescein diacetate (CM-H2DCFDA; Invitrogen) probe at 2.5 μM for 30 min at 37 °C. After washing with PBS, the median fluorescence of 1 × 10^4 cells was measured with a NovoCyte flow cytometer (Agilent Technologies) equipped with the NovoExpress software. The fold increase versus control untreated cells was determined for each treatment in three independent experiments.
Background: In flow cytometry, cells or beads pass a laser one at a time.

The next series deals with calf thymus DNA (CT-DNA). Kind of series: Competitive EtBr displacement assay. Type of series: binding. The following applies: CT-DNA saturated with EtBr; 1 h, room temperature; read-out: C50 (50% reduction of EtBr fluorescence). On the procedure: To investigate the capacity of the complexes to intercalate into DNA, the competitive ethidium displacement assay was carried out as previously described[149] with minor modifications. Stock solutions of 20 μM calf thymus DNA (CT-DNA) and 25 μM Ethidium bromide (EtBr) were prepared in saline TE (50 mM NaCl, 10 mM tris(hydroxymethyl) aminomethane–HCl, 0.1 mM ethylenediaminetetracetic acid (EDTA), pH 7.4). Serial dilutions of metal complexes were prepared at concentrations ranging from 20 to 400 μM from a 1 mM stock solution containing 20% DMSO. The assay was carried out by mixing 25 μL of CT-DNA and 25 μL of EtBr with 50 μL of each compound dilution, on a black 96-well plate. The plate was incubated at room temperature for 1 h and the fluorescence was measured on a Synergy 4 microplate reader (Biotek, Winooski), with excitation wavelength set to 500 nm, and emission wavelength set to 530–800 nm. The fluorescence emission at 590 nm was used to measure the C50, corresponding to the concentration of compound required to induce a 50% decrease in the fluorescence of the EtBr. Experiments were performed in triplicate.

For the next series, the system named is MRC-5. As to the kind of experiment: CyQUANT cell viability assay, dark or blue light. Type of series: cell-based, human. As to conditions: for PI (IC50,dark/IC50,light): MRC-5, blue light 460 nm; for IC50: 48 h. How it is done: (§1) Cells were cultured in 96-well plates at a density of 3000 (A549), 2500 (HeLa), or 5000 (PC-3, 1BR.3.G, and MRC-5) cells per well in cell culture medium and allowed to attach for 24 h. Solutions of the complexes at different concentrations were prepared for cell treatments. In all cases, the solid compounds were weighed using an analytical balance (Mettler Toledo AX205DR) to ensure precise measurements. Subsequently, 5 mM solutions were prepared using DMSO. Solutions were then diluted in water to reach a concentration of 1 mM and then, aliquots were taken and diluted in culture medium to obtain solutions ranging from 0 to 50 μM. […] The cells were treated with these solutions in dark conditions or following the photoactivation protocol (see below). 48 h later the treatments were removed, and cells were washed with phosphate-buffered saline (PBS).
(§2) Initially, the effect of the complexes on the cell viability was determined by the 3-(4,5-dimethylthiazol-2-yl)-2,5-diphenyltetrazolium bromide (MTT) assay.[147] The cells were incubated for 2 h with 100 μL of culture medium together with 10 μL of MTT (Sigma-Aldrich) at 0.5 mg/mL. After discarding the medium, DMSO was added to each well to dissolve the purple formazan crystals. The absorbance of each well was determined on a Multiscan Plate Reader (Synergy 4, Biotek, Winooski) at a wavelength of 570 nm. Cell viability was also assessed using the CyQUANT Direct Cell Proliferation Assay (Thermo Fisher Scientific), following the manufacturer’s instructions. Briefly, after the treatments, the cells were washed with PBS, and an equal volume of culture medium and CyQUANT mix was added to each well. The plates were then incubated for 1 h at 37 °C. Subsequently, the fluorescence intensity was bottom read using a Multiscan Plate Reader (Synergy 4, Biotek, Winooski) with excitation and emission filters of 485 and 528 nm, respectively. In both assays, at least three replicates were measured for each treatment. The concentration that reduces the cell viability by 50% (IC50) was established using the Gen5 software (BioTek). Three independent experiments were carried out for each compound. […] The phototoxicity index (PI = IC50,dark/IC50,light) was determined.
(§3) To assess the photodynamic activity of the complexes, cells were incubated with the complexes for 4 h to enable their intracellular accumulation. The cells were then irradiated with light with a wavelength of 460 nm (blue), 530 nm (green), or 655 nm (red) for 1 h using a LED system (LuxLight) with an effective power of 6.7 mW cm^–2, which provides a total light dose of 24.1 J cm^–2. The LED system was positioned at 25 mm from the cell culture plates.

In the next series the test system is 1BR.3.G. As to the kind of experiment: CyQUANT cell viability assay, dark or blue light. Type of series: cell-based, human. The following applies: for IC50: 48 h; for PI (IC50,dark/IC50,light): blue light 460 nm. On the procedure:
as §1, §2, §3

Another series concerns PC-3. As to the kind of experiment: CyQUANT cell viability assay, dark or blue light. Type of series: cell-based, human. The following applies: for IC50 / PI (IC50,dark/IC50,light): PC-3, CyQUANT; for IC50: 48 h; for PI (IC50,dark/IC50,light): blue light 460 nm; for PI/Dose: PC‐3, 460 nm, dose 24.1 J cm‐2, PI from CyQUANT. On the procedure: as §1, §2, §3
[2] abbreviates: MRC-5, blue light 460 nm 1 h (24.1 J cm^–2), read-out: IC50,light.
[3] abbreviates: MRC-5 nonmalignant lung fibroblasts, dark, read-out: IC50,dark.
Setting [4] is: 1BR.3.G nonmalignant fibroblasts, dark, read-out: IC50,dark.
The mark [5] stands for this setting: 1BR.3.G, blue light 460 nm 1 h (24.1 J cm^–2), read-out: IC50,light.
Where [6] appears, read: blue light 460 nm 1 h (24.1 J cm^–2), read-out: IC50,light.

Read-outs that look alike come from different tables or passages of the source.

Turning to `Cc1c(C)c(C)[c-](C)c1C.F[B-](F)(F)F.c1ccc2cc3nc4c5ccc[n+]6c5c5[c](cccc5c4nc3cc2c1)[Ir]6[n+]1cc[nH]c1` [complex 4, [(η^5-C5Me5)Ir(Im)(pbpn)]BF4], the Hemolytic activity in series [1] (1 μM) was 0%; in series [1] (5 μM), 0%; in series [1] (10 μM) it was 0.5%; in series [1] (25 μM) it was 6.7%. The “elevation of ROS levels (median fluorescence)” value (“elevation of ROS levels” for short) in the series with A549 cells is 2.2 fold. Further, the “increase in cellular ROS content” value in the series with A549 cells amounted to 2.8 fold. Also, the IC50 with calf thymus DNA (CT-DNA) was 15.9 µM; with MRC-5 (setting [2]), 0.0031 ± 0.001 µM; in the series on MRC-5 (setting [3]), 2.48 ± 0.2 µM; in the series with 1BR.3.G (setting [4]), 2 ± 0.4 µM; in the series on 1BR.3.G (setting [5]), 0.0008 ± 0.0004 µM; with PC-3 (setting [6]) it was 0.0011 ± 0.0006 µM. The IC50 in the series with PC-3 (dark, read-out: IC50,dark) is 2.28 ± 0.7 µM. Besides, the “PI (IC50,dark/IC50,light)” value was found to be 790 in the series with MRC-5, 2451 with 1BR.3.G (1BR.3.G) and 2022 in the series on PC-3. In addition, the figures for the PI/Dose with PC-3 (listed as 4) and in the series with PC-3 (listed as Complex 4) were 84 and 83.9, respectively.

`Cc1c(C)c(C)[c-](C)c1C.F[B-](F)(F)F.c1ccc(Cn2cc[n+]([Ir]3[c]4cccc5c6nc7ccccc7nc6c6ccc[n+]3c6c45)c2)cc1` [complex 7, [(η^5-C5Me5)Ir(bzIm)(pbpz)]BF4]: the IC50 with calf thymus DNA (CT-DNA) worked out at 95.4 µM.

Consider `Cc1c(C)c(C)[c-](C)c1C.F[B-](F)(F)F.c1ccc2nc3c4ccc[n+]5c4c4[c](cccc4c3nc2c1)[Ir]5[n+]1ccn(CCN2CCCCC2)c1` [complex 5, [(η^5-C5Me5)Ir(Imepip)(pbpz)]BF4], for which the IC50 with calf thymus DNA (CT-DNA) came to 54.6 µM.

As for `Cc1c(C)c(C)[c-](C)c1C.F[B-](F)(F)F.c1ccc2cc3nc4c5ccc[n+]6c5c5[c](cccc5c4nc3cc2c1)[Ir]6[n+]1ccn(CCN2CCCCC2)c1` [complex 6, [(η^5-C5Me5) Ir(Imepip)(pbpn)]BF4], the Hemolytic activity in series [1] (1 μM) turned out to be 0%; in series [1] (5 μM), 0%; in series [1] (10 μM) it was 1.0%; in series [1] (25 μM) it was 10.7%. In the series on A549 cells, the “elevation of ROS levels” value worked out at 2.4 fold. The “increase in cellular ROS content” value with A549 cells was 2.6 fold. Further, the IC50 in the series on calf thymus DNA (CT-DNA) was 32.8 µM; in the series with MRC-5 (setting [2]), 0.0008 ± 0.0002 µM; in the series on MRC-5 (setting [3]), 0.7 ± 0.08 µM; with 1BR.3.G (setting [4]), 0.57 ± 0.06 µM; in the series with 1BR.3.G (setting [5]), 0.0009 ± 0.0003 µM; in the series with PC-3 (setting [6]), 0.0012 ± 0.001 µM. The IC50 in the series with PC-3 (dark, read-out: IC50,dark) turned out to be 1.16 ± 0.16 µM. Also, the “PI (IC50,dark/IC50,light)” value with MRC-5 worked out at 929; with 1BR.3.G (1BR.3.G), 644; in the series with PC-3 it was 961.

Consider `Cc1c(C)c(C)[c-](C)c1C.[Cl][Ir]1[c]2cccc3c4nc5ccccc5nc4c4ccc[n+]1c4c23` [complex 1, [(η^5-C5Me5)IrCl(pbpz)]], for which the IC50 in the series with calf thymus DNA (CT-DNA) turned out to be 192 µM.

For the compound `Cc1c(C)c(C)[c-](C)c1C.F[B-](F)(F)F.c1ccc(Cn2cc[n+]([Ir]3[c]4cccc5c6nc7cc8ccccc8cc7nc6c6ccc[n+]3c6c45)c2)cc1` [complex 8, [(η^5-C5Me5)Ir(bzIm)(pbpn)]BF4], the Hemolytic activity was 0.2% in series [1] (1 μM), 1.0% in series [1] (5 μM), 3.2% in series [1] (10 μM) and 16.3% in series [1] (25 μM). Also, in the series on A549 cells, the “elevation of ROS levels” value stood at 5.6 fold. In addition, the “increase in cellular ROS content” value in the series with A549 cells was 1.7 fold. For the same compound, the IC50 with calf thymus DNA (CT-DNA) came to 15.9 µM; with MRC-5 (setting [2]), 0.0008 ± 0.0001 µM; with MRC-5 (setting [3]), 0.68 ± 0.1 µM; in the series on 1BR.3.G (setting [4]), 0.5 ± 0.04 µM; in the series on 1BR.3.G (setting [5]) it was 0.0005 ± 0.0002 µM; in the series on PC-3 (setting [6]), 0.0005 ± 0.0003 µM. Besides, the IC50 with PC-3 (dark, read-out: IC50,dark) amounted to 0.64 ± 0.1 µM. Further, the figures for the “PI (IC50,dark/IC50,light)” value in the series with MRC-5, with 1BR.3.G (1BR.3.G) and in the series on PC-3 were 863, 942 and 1179, respectively. Further, in the series on PC-3, the PI/Dose was 48.9.

Values taken from publication PMC10859961, “Ir(III) Half-Sandwich Photosensitizers with a π-Expansive Ligand for Efficient Anticancer Photodynamic Therapy” (Journal of Medicinal Chemistry, 2024).
